{"source": "patent US20160045463A1", "about": "“USE OF METALLOPROTEASE INHIBITORS IN THE TREATMENT OF POLYCYSTIC LIVER DISEASES” (UNIVERSIDAD DE SALAMANCA, priority 2012, published 2016)", "key": {"PCK rats": {"test_system": "PCK rats", "experiment": "Treatment of PCK rats with Marimastat for 8 weeks", "assay_type": "in vivo, rat", "text": "PCK rats, sold by the Charles River company, is a well characterised animal model of ARPKD and used for the study of liver and kidney cystogenesis (Mason S B, et al. The Anatomical Record: Advances in Integrative Anatomy and Evolutionary Biology 2010; 293:1279-1288). This colony of animals has a spontaneous orthologous mutation in the PKHD1 gene that causes them to develop liver and kidney symptoms similar to those of ARPKD patients. Thus, after 4 weeks of life, PCK rats, irrespective of sex, start to develop liver and kidney cystogenesis and fibrosis, which are clearly shown at 16 weeks of life. In addition, these animals also show an increase in serum values of creatinine, bilirubin, cholesterol, triglycerides and proteinuria (Mason S B, et al. The Anatomical Record: Advances in Integrative Anatomy and Evolutionary Biology 2010; 293:1279-1288). PCK rats were maintained on standard diet for the whole assay and all in vivo experimental procedures were approved by the Ethics Committee of the Instituto Biodonostia.\nThe group of control rats received the vehicle solution (i.e. distilled water) orally, 2 times a day (every ˜8-12 hours) and using the tube. Various biochemical markers were monitored in serum at the start and end of the study. Blood was extracted (500 μl through the tail vein) after anaesthetising the animal with isoflurane (inhalation anaesthesia, 2.5% in oxygen, with a flow rate of 0.3 L/min). After centrifuging the blood, various biochemical parameters were determined in the serum: alkaline phosphatase (ALP), transaminases (ALT, AST), bilirubin, biliary acids, creatinine, cholesterol, triglycerides and total proteins using a COBAS Integra400 Plus 174 analyser.\nAfter sacrificing the animals, the liver and kidney were removed and weighed; next both types of tissue were sectioned with a scalpel and fixed with a solution of 10% formaldehyde, to be later included in paraffin. Slices of 5 μm thickness were made of each sample and stained with hematoxylin-eosin or picrosirius red.\nThe aim of hematoxylin-eosin staining is the determination of histological morphology. Thus the slices were incubated for 4 minutes with Harris hematoxylin (Merck) at room temperature. After incubation, the samples were washed with distilled water and stained with eosin (Merck) for 1 minute at room temperature. Next, the tissue slices were washed in running water for 5 minutes, dehydrated by immersion in solutions of increasing ethanol concentration (70%, 96%, 100% for 1 minute each) and finally incubated with xylol for 5 minutes. The samples were mounted with DePeX (Sigma) mounting medium for subsequent viewing in an optical microscope (Nikon Eclipse E800).\nThe purpose of picrosirius red staining is the determination of extracellular collagen in the tissue. When hydration was completed, the slices were stained with 0.2% phosphomolybdic acid (Panreac Química) for 2 minutes and washed with distilled water. Next, the samples were incubated with a solution of 0.1% picrosirius red f3B (Gibco) for 3 hours. Finally the samples were washed with a solution of 0.01 N HCl for 2 minutes; the tissue was then dehydrated and mounted as described in the previous section.\nAdditionally, the level of expression of various profibrotic hepatic markers [collagen 1a1 (Col1a1), beta transforming growth factor (TGFbeta), alpha actin of smooth muscle (alpha-Sma) and the growth factor of connective tissue (Ctgf)] and proinflammatory markers [IL-6, IL CXCL1 and IL1beta)] were analysed by RT-PCR in liver samples of control and PCK rats."}, "normal rats": {"test_system": "normal rats", "experiment": "Normal rats treated with Marimastat orally for 1 week", "assay_type": "in vivo, rat", "conditions": "oral, same dose", "procedure": "The various biochemical and histological markers listed above were also analysed. […] There were also no changes in the mean body weight of the animals."}, "[1]": {"conditions": "at the time of sacrifice, n = 9"}, "[2]": {"conditions": "serum, at the time of sacrifice, n = 9"}}, "data": [{"smiles": "CNC(=O)[C@@H](NC(=O)[C@H](CC(C)C)[C@H](O)C(=O)NO)C(C)(C)C", "note": "[Marimastat, N-[2,2-dimethyl-1-(methylcarbamoyl)propyl]-2-[hydroxy-(hydroxycarbamoyl)methyl]-4-methyl-pentanamide]", "values": [{"measurement": "kidney cystogenesis", "setting": "PCK rats; 8 weeks, FIG. 25", "result": "not affected"}, {"measurement": "cholangiocyte marker Ck19 expression at protein level (Western blot), hepatic samples", "setting": "PCK rats; 8 weeks, p<0.001, FIG. 27A", "result": "down regulation"}, {"measurement": "collagen 1a1 (Col1a1) mRNA expression, hepatic samples", "setting": "PCK rats; 8 weeks, p<0.05, FIG. 27B", "result": "down regulation"}, {"measurement": "mRNA levels of CXCL1 in liver samples", "setting": "PCK rats; 8 weeks, p=0.08, FIG. 28B", "result": "almost statistically significant down regulation"}, {"measurement": "mRNA levels of IL6 in liver samples", "setting": "PCK rats; 8 weeks, p=0.1, FIG. 28A", "result": "almost statistically significant down regulation"}, {"measurement": "collagen deposition in liver (picrosirius red)", "setting": "PCK rats; 8 weeks, vs control PCK rats, FIG. 26", "result": "less collagen deposition"}, {"measurement": "WEIGHT Left kidney", "setting": "PCK rats; [1]", "result": "2.40 ± 0.19"}, {"measurement": "WEIGHT Liver", "setting": "PCK rats; [1]", "result": "26.17 ± 2.98"}, {"measurement": "WEIGHT Rat", "setting": "PCK rats; [1]", "result": "497 ± 12.24"}, {"measurement": "WEIGHT Right kidney", "setting": "PCK rats; [1]", "result": "2.36 ± 0.17"}, {"measurement": "serum levels of biochemical markers and biliary flow", "setting": "PCK rats; at the time of sacrifice, treated vs control, Table 5", "result": "no difference"}, {"measurement": "liver cystogenesis (area of intrahepatic biliary cysts)", "setting": "PCK rats; oral 0.2856 mg/kg/day, 8 weeks, vs control PCK rats, p<0.05, FIG. 24", "result": "reduction"}, {"measurement": "ALT", "setting": "PCK rats; [2]", "result": "138.22 ± 2.66", "unit": "U/L"}, {"measurement": "AST", "setting": "PCK rats; [2]", "result": "755.56 ± 24.76", "unit": "U/L"}, {"measurement": "Albumin", "setting": "PCK rats; [2]", "result": "13.78 ± 0.59", "unit": "g/L"}, {"measurement": "Alkaline phosphatase", "setting": "PCK rats; [2]", "result": "57.00 ± 5.01", "unit": "U/L"}, {"measurement": "Cholesterol", "setting": "PCK rats; [2]", "result": "76.56 ± 3.93", "unit": "mg/dL"}, {"measurement": "Creatinine", "setting": "PCK rats; [2]", "result": "0.36 ± 0.02", "unit": "mg/dL"}, {"measurement": "Glucose", "setting": "PCK rats; [2]", "result": "137.89 ± 7.25", "unit": "mg/dL"}, {"measurement": "HDL", "setting": "PCK rats; [2]", "result": "31.11 ± 3.06", "unit": "mg/dL"}, {"measurement": "LDH", "setting": "PCK rats; [2]", "result": "15192.33 ± 356.84", "unit": "U/L"}, {"measurement": "LDL", "setting": "PCK rats; [2]", "result": "33.38 ± 1.61", "unit": "mg/dL"}, {"measurement": "Total bilirubin", "setting": "PCK rats; [2]", "result": "0.16 ± 0.05", "unit": "mg/dL"}, {"measurement": "Total protein", "setting": "PCK rats; [2]", "result": "3.11 ± 0.12", "unit": "g/dL"}, {"measurement": "Triglycerides", "setting": "PCK rats; [2]", "result": "60.33 ± 3.97", "unit": "mg/dL"}, {"measurement": "Urea", "setting": "PCK rats; [2]", "result": "20.33 ± 0.78", "unit": "mg/dL"}, {"measurement": "histology of the liver or the kidney", "setting": "normal rats", "result": "did not affect"}, {"measurement": "mean body weight of the animals", "setting": "normal rats", "result": "no changes"}, {"measurement": "serum levels of biochemical markers", "setting": "normal rats", "result": "did not affect"}]}]}
